Type in all cases: cell-based
Holding throughout (details): free compounds (natural products and synthetic analogs), cell viability 96 hours after treatment

Experiment [1] has as its system MDA-MB-361-DYT2 (breast cancer) cells. The experiment in a line: In vitro cell assay (MTS cell viability), MDA-MB-361-DYT2. The gist of the method:
(§1)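 Cells seeded 24 h, then treated with antibody-drug conjugates or free drug, 3-fold serial dilutions at 10 concentrations in duplicate. Viability by MTS at 96 h as percent of untreated control; IC50 from four-parameter logistic fit.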

Experiment [2] concerns BT474 (breast cancer) cells. The experiment in a line: In vitro cell assay (MTS cell viability), BT474. Summed up:
as §1

Experiment [3] has as its system N87 (gastric cancer) cells. The experiment in a line: In vitro cell assay (MTS cell viability), N87. The gist of the method:
as §1

This is an account of results in patent US9504669B2, “Spliceostatin analogs and methods for their preparation” (PFIZER INC., priority 2012, dated 2016).

A word on the IC50: it is the midpoint of a concentration-inhibition curve. Consider `CC(=O)O[C@@H](C)/C=C\C(=O)N[C@@H]1C[C@H](C)[C@H](C/C=C(C)/C=C/[C@H]2O[C@H](CC(=O)NCc3ccc(S(=O)(=O)N(C)C)cc3)C[C@@]3(CO3)[C@@H]2O)O[C@@H]1C` [#B93, (2S,3Z)-5-{[(2R,3R,5S,6S)-6-{(2E,4E)-5-[(3R,4R,5R,7S)-7-(2-{[4-(dimethylsulfamoyl)benzyl]amino}-2-oxoethyl)-4-hydroxy-1,6-dioxaspiro[2.5]oct-5-yl]-3-methylpenta-2,4-dien-1-yl}-2,5-dimethyltetrahydro-2H-pyran-3-yl[amino}-5-oxopent-3-en-2-yl acetate], for which the IC50 in experiment [1] amounted to 3.96 nM; in experiment [2], 2.27 nM; in experiment [3], 0.647 nM.
As to `CNS(=O)(=O)c1ccc(CNC(=O)C[C@@H]2C[C@@]3(CO3)[C@H](O)[C@@H](/C=C/C(C)=C/C[C@@H]3O[C@H](C)[C@H](NC(=O)/C=C\[C@H](C)OC(C)=O)C[C@@H]3C)O2)cc1` [#B94, (2S,3Z)-5-{[(2R,3R,5S,6S)-6-{(2E,4E)-5-[(3R,4R,5R,7S)-4-hydroxy-7-(2-{[4-(methylsulfamoyl)benzyl]amino}-2-oxoethyl)-1,6-dioxaspiro[2.5]oct-5-yl]-3-methylpenta-2,4-dien-1-yl}-2,5-dimethyltetrahydro-2H-pyran-3-yl]amino}-5-oxopent-3-en-2-yl acetate], the half-maximal inhibitory concentration (IC50) in experiment [1] (96 h) was 37.4 nM; in experiment [2] (Homo sapiens, BT-474), 18.6 nM; in experiment [3] (96 h), 4.9 nM.
`CC(=O)O[C@@H](C)/C=C\C(=O)N[C@@H]1C[C@H](C)[C@H](C/C=C(C)/C=C/[C@@H]2C[C@]3(CO3)C[C@@H](CC(=O)NCCO)O2)O[C@@H]1C` [#B95, ((2S,3Z)-5-{[(2R,3R,5S,6S)-6-{(2E,4E)-5-[(3S,5S,7S)-7-{2-[(2-hydroxyethyl)amino]-2-oxoethyl}-1,6-dioxaspiro[2.5]oct-5-yl]-3-methylpenta-2,4-dien-1-yl}-2,5-dimethyltetrahydro-2H-pyran-3-yl]amino}-5-oxopent-3-en-2-yl acetate]: the IC50 in experiment [1] worked out at 11.1 nM; in experiment [2], 1.28 nM; in experiment [3] it was 1.06 nM.
Regarding `CC(=O)O[C@@H](C)/C=C\C(=O)N[C@@H]1C[C@H](C)[C@H](C/C=C(C)/C=C/[C@@H]2C[C@]3(CO3)C[C@@H](CC(=O)N(C)Cc3ccc(S(=O)(=O)N(C)C)cc3)O2)O[C@@H]1C` [#B96, (2S,3Z)-5-{[(2R,3R,5S,6S)-6-{(2E,4E)-5-[(3S,5S,7S)-7-(2-{[4-(dimethylsulfamoyl)benzyl](methyl)amino}-2-oxoethyl)-1,6-dioxaspiro[2.5]oct-5-yl]-3-methylpenta-2,4-dien-1-yl}-2,5-dimethyltetrahydro-2H-pyran-3-yl]amino}-5-oxopent-3-en-2-yl acetate], the IC50 in experiment [1] (96 h) turned out to be 31.5 nM; in experiment [2] (Homo sapiens, BT-474), 22.9 nM; in experiment [3] (96 h) it was 12.3 nM.
In the same order, the values of `CC(=O)O[C@@H](C)/C=C\C(=O)N[C@@H]1C[C@H](C)[C@H](C/C=C(C)/C=C/[C@@H]2C[C@]3(CO3)C[C@@H](CC(=O)NCc3ccc(S(N)(=O)=O)cc3)O2)O[C@@H]1C` [#B97, (2S,3Z)-5-{[(2R,3R,5S,6S)-2,5-dimethyl-6-{(2E,4E)-3-methyl-5-[(3S,5S,7S)-7-{2-oxo-2-[(4-sulfamoylbenzyl)amino]ethyl}-1,6-dioxaspiro[2.5]oct-5-yl]penta-2,4-dien-1-yl}tetrahydro-2H-pyran-3-yl]amino}-5-oxopent-3-en-2-yl acetate] are 41.6 nM, 8.83 nM and 5.09 nM.
In the same order, the values of `CC(=O)O[C@@H](C)/C=C\C(=O)N[C@@H]1C[C@H](C)[C@H](C/C=C(C)/C=C/[C@@H]2C[C@]3(CO3)C[C@@H](CC(=O)NCc3ccc(S(=O)(=O)N(C)C)cc3)O2)O[C@@H]1C` [#B98, (2S,3Z)-5-{[(2R,3R,5S,6S)-6-{(2E,4E)-5-[(3S,5S,7S)-7-(2-{[4-(dimethylsulfamoyl)benzyl]amino}-2-oxoethyl)-1,6-dioxaspiro[2.5]oct-5-yl]-3-methylpenta-2,4-dien-1-yl}-2,5-dimethyltetrahydro-2H-pyran-3-yl]amino}-5-oxopent-3-en-2-yl acetate] are 8.7 nM, 5.75 nM and 2.55 nM.
For `CC(=O)O[C@@H](C)/C=C\C(=O)N[C@@H]1C[C@H](C)[C@H](C/C=C(C)/C=C/[C@@H]2C[C@]3(CO3)C[C@@H](CC(=O)NCCS(C)(=O)=O)O2)O[C@@H]1C` [#B99, (2S,3Z)-5-{[(2R,3R,5S,6S)-2,5-dimethyl-6-{(2E,4E)-3-methyl-5-[(3S,5S,7S)-7-(2-{[2-(methylsulfonyl)ethyl]amino}-2-oxoethyl)-1,6-dioxaspiro[2.5]oct-5-yl]penta-2,4-dien-1-yl}tetraydro-2H-pyran-3-yl]amino}-5-oxopent-3-en-2-yl acetate], the IC50 in experiment [1] was 21.5 nM; in experiment [2], 7.87 nM; in experiment [3], 3.28 nM.
Consider `CC(=O)O[C@@H](C)/C=C\C(=O)N[C@@H]1C[C@H](C)[C@H](C/C=C(C)/C=C/[C@@H]2C[C@]3(CO3)C[C@@H](CC(=O)NCc3ccc(N)cc3)O2)O[C@@H]1C` [#B100, (2S,3Z)-5-{[(2R,3R,5S,6S)-6-{(2E,4E)-5-[(3S,5S,7S)-7-{2-[(4-aminobenzyl)amino]-2-oxoethyl}-1,6-dioxaspiro[2.5]oct-5-yl]-3-methylpenta-2,4-dien-1-yl}-2,5-dimethyltetrahydro-2H-pyran-3-yl]amino}-5-oxopent-3-en-2-yl acetate], for which the IC50 was determined as 16.9 nM in experiment [1] (96 h); 10.6 nM in experiment [2] (Homo sapiens, BT-474); 5.05 nM in experiment [3] (96 h).
Regarding `CC(=O)O[C@@H](C)/C=C\C(=O)N[C@@H]1C[C@H](C)[C@H](C/C=C(C)/C=C/[C@@H]2C[C@]3(CO3)C[C@@H](CC(=O)NCc3ccccc3)O2)O[C@@H]1C` [#B101, (2S,3Z)-5-({(2R,3R,5S,6S)-6-[(2E,4E)-5-{(3S,5S,7S)-7-[2-(benzylamino)-2-oxoethyl]-1,6-dioxaspiro[2.5]oct-5-yl}-3-methylpenta-2,4-dien-1-yl]-2,5-dimethyltetrahydro-2H-pyran-3-yl}amino)-5-oxopent-3-en-2-yl acetate], the IC50 in experiment [1] (96 h) came to 34.8 nM; in experiment [2] (Homo sapiens, BT-474), 25.6 nM; in experiment [3] (96 h) it was 10.4 nM.
As for `CSCCN(C)C(=O)C[C@@H]1C[C@@]2(CO2)C[C@@H](/C=C/C(C)=C/C[C@@H]2O[C@H](C)[C@H](NC(=O)/C=C\[C@H](C)OC(C)=O)C[C@@H]2C)O1` [#B102, (2S,3Z)-5-{[(2R,3R,5S,6S)-2,5-dimethyl-6-{(2E,4E)-3-methyl-5-[(3S,5S,7S)-7-(2-{methyl[2-(methylsulfanyl)ethyl]amino}-2-oxoethyl)-1,6-dioxaspiro[2.5]oct-5-yl]penta-2,4-dien-1-yl}tetrahydro-2H-pyran-3-yl]amino}-5-oxopent-3-en-2-yl acetate], the half-maximal inhibitory concentration (IC50) in experiment [1] (96 h) was determined as 32.9 nM; in experiment [2] (Homo sapiens, BT-474) it was 10.7 nM; in experiment [3] (96 h) it was 7.79 nM.
On to `CSCCNC(=O)C[C@@H]1C[C@@]2(CO2)C[C@@H](/C=C/C(C)=C/C[C@@H]2O[C@H](C)[C@H](NC(=O)/C=C\[C@H](C)OC(C)=O)C[C@@H]2C)O1` [#B103, (2S,3Z)-5-{[(2R,3R,5S,6S)-2,5-dimethyl-6-{(2E,4E)-3-methyl-5-[(3S,5S,7S)-7-(2-{[2-(methylsulfanyl)ethyl]amino}-2-oxoethyl)-1,6-dioxaspiro[2.5]oct-5-yl]penta-2,4-dien-1-yl}tetrahydro-2H-pyran-3-yl]amino}-5-oxopent-3-en-2-yl acetate], for which the IC50 in experiment [1] (96 h) turned out to be 4.25 nM; in experiment [2] (Homo sapiens, BT-474), 4.03 nM; in experiment [3] (96 h), 1.6 nM.
Taken in the same sequence, the figures for `CC(=O)O[C@@H](C)/C=C\C(=O)N[C@@H]1C[C@H](C)[C@H](C/C=C(C)/C=C/[C@@H]2C[C@]3(CO3)C[C@@H](CC(=O)NCCS(C)(=O)=O)O2)O[C@@H]1C` [#B104, (2S,3Z)-5-{[(2R,3R,5S,6S)-2,5-dimethyl-6-{(2E,4E)-3-methyl-5-[(3S,5S,7S)-7-(2-{[2-(methylsulfonyl)ethyl]amino}-2-oxoethyl)-1,6-dioxaspiro[2.5]oct-5-yl]penta-2,4-dien-1-yl}tetrahydro-2H-pyran-3-yl]amino}-5-oxopent-3-en-2-yl acetate] were 9.13 nM, 4.02 nM and 1.41 nM.
In the same order, the values of `CC(=O)/C=C\C(=O)N[C@@H]1C[C@H](C)[C@H](C/C=C(C)/C=C/[C@@H]2C[C@]3(CO3)C[C@@H](CC(N)=O)O2)O[C@@H]1C` [#B129, (2Z)—N-[(2R,3R,5S,6S)-6-{(2E,4E)-5-[(3S,5S,7S)-7-(2-amino-2-oxoethyl)-1,6-dioxaspiro[2.5]oct-5-yl]-3-methylpenta-2,4-dien-1-yl}-2,5-dimethyltetrahydro-2H-pyran-3-yl]-4-oxopent-2-enamide] are more than 100 nM, more than 100 nM and more than 100 nM.
In the case of `CSCCN(C)C(=O)O[C@@H](C)/C=C\C(=O)N[C@@H]1C[C@H](C)[C@H](C/C=C(C)/C=C/[C@H]2O[C@H](CC(N)=O)C[C@@]3(CO3)[C@@H]2O)O[C@@H]1C` [#B130, (2S,3Z)-5-{[(2R,3R,5S,6S)-6-{(2E,4E)-5-[(3R,4R,5R,7S)-7-(2-amino-2-oxoethyl)-4-hydroxy-1,6-dioxaspiro[2.5]oct-5-yl]-3-methylpenta-2,4-dien-1-yl}-2,5-dimethyltetrahydro-2H-pyran-3-yl]amino}-5-oxopent-3-en-2-yl methyl[2-(methylsulfanyl)ethyl]carbamate], the half-maximal inhibitory concentration (IC50) turned out to be 4.5 nM in experiment [1] (96 h); 1.5 nM in experiment [2] (Homo sapiens, BT-474); 2.98 nM in experiment [3] (96 h).
Consider `CC(/C=C/[C@H]1O[C@H](CC(N)=O)C[C@@]2(CO2)[C@@H]1O)=C\C[C@@H]1O[C@H](C)[C@H](NC(=O)/C=C\[C@H](C)OC(=O)N2CCCCC2)C[C@@H]1C` [#B134, (2S,3Z)-5-{[(2R,3R,5S,6S)-6-{(2E,4E)-5-[(3R,4R,5R,7S)-7-(2-amino-2-oxoethyl)-4-hydroxy-1,6-dioxaspiro[2.5]oct-5-yl]-3-methylpenta-2,4-dien-1-yl}-2,5-dimethyltetrahydro-2H-pyran-3-yl]amino}-5-oxopent-3-en-2-yl piperidine-1-carboxylate], for which the IC50 was 2.02 nM in experiment [1] (96 h); 1.18 nM in experiment [2] (Homo sapiens, BT-474); 1.8 nM in experiment [3] (96 h).
